From ChEMBL document CHEMBL5046289, “Targeting the S2 Subsite Enables the Structure-Based Discovery of Novel Highly Selective Factor XIa Inhibitors” (J Med Chem, 2022)
The source made the active and inactive calls. The calls are words filed in the database; no cut-off is given here.

How the values were obtained:
[1] = Toxicity in C57BL/6J mouse assessed as bleeding risk at 35 mg/kg, iv measured after 15 mins by tail transection assay; type: organism-based; conditions: in vivo, 0.25 h
[2] = Toxicity in C57BL/6J mouse assessed as bleeding risk at 60 to 100 mg/kg, iv measured after 15 mins by tail transection assay; type: organism-based; conditions: in vivo, 0.25 h, dose 60-100 mg/kg
[3] = Clearance in Sprague-Dawley rat at 10 mg/kg, iv after 0.083 to 24 hrs by LC-MS/MS analysis; type: ADME, organism-based; conditions: in vivo, time 0.083-24 hrs
Homo sapiens [4] = species: Homo sapiens; assay: Selectivity index, ratio of IC50 for coagulation factor IXa (unknown origin) to IC50 for coagulation factor XIa (unknown origin)
[5] = molecular target: Serine protease 1 (Homo sapiens) (UniProt P07477); assay: Inhibition of trypsin (unknown origin) assessed as chromogenic substrate using CS-11(22) as substrate at 1 mM incubated for 1 hr by spectrophotometer based microplate reader method
Serine protease 1 (Homo sapiens), sequence (P07477 whole entry): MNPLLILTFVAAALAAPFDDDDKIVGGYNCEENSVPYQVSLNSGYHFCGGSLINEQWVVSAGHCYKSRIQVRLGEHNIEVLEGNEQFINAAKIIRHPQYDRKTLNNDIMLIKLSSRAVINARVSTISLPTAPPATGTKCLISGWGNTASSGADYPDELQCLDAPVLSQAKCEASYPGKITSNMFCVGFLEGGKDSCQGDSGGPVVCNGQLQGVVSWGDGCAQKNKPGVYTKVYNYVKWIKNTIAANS

Coagulation factor X = Coagulation factor X (Homo sapiens, UniProt P00742); assay: Inhibition of coagulation factor Xa (unknown origin) assessed as chromogenic substrate using CS-11(22) as substrate incubated for 1 hr by spectrophotometer based microplate reader method
Coagulation factor X, sequence (P00742 41-179 limits assumed): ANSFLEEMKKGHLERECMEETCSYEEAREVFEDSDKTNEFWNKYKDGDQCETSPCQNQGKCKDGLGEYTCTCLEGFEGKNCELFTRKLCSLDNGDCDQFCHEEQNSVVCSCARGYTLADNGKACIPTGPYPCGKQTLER
Coagulation factor X, sequence (P00742 235-488 limits assumed): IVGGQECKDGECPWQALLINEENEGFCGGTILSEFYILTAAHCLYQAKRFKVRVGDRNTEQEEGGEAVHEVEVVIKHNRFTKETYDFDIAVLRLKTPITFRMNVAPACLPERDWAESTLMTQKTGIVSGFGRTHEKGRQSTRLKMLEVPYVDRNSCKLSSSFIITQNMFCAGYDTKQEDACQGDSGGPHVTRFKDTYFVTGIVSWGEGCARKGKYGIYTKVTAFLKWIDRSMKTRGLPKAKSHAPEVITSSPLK

Mus musculus = assay: Antithrombotic activity in C57BL/6J mouse model of FeCl3-induced carotid artery thrombosis assessed as time of occlusion pretreated at 6.5 mg/kg for 10 mins followed by FeCl3 addition for 3 mins and measured after 30 mins; type: functional, organism-based
[6] = Acute toxicity in ICR mouse assessed as histological change in lung at 50 to 100 mg/kg, iv as single dose for 14 days by H and E staining method; type: organism-based; conditions: in vivo, 336 h, dose 50-100 mg/kg, time 14 day
Prothrombin = Prothrombin (Homo sapiens, UniProt P00734); assay: Inhibition of thrombin (unknown origin) assessed as chromogenic substrate using CS-10(38) as substrate incubated for 1 hr by spectrophotometer based microplate reader method
[7] = Acute toxicity in ICR mouse assessed as histological change in spleen at 50 to 100 mg/kg, iv as single dose for 14 days by H and E staining method; type: organism-based; conditions: in vivo, 336 h, dose 50-100 mg/kg, time 14 day
[8] = Toxicity in C57BL/6J mouse assessed as bleeding risk at 20 mg/kg, iv measured after 15 mins by tail transection assay; type: organism-based; conditions: in vivo, 0.25 h
Homo sapiens [9] = species: Homo sapiens; assay: Selectivity index, ratio of IC50 for plasma kallikrein (unknown origin) to IC50 for coagulation factor XIa (unknown origin)
[10] = Acute toxicity in ICR mouse assessed as histological change in kidney at 50 to 100 mg/kg, iv as single dose for 14 days by H and E staining method; type: organism-based; conditions: in vivo, 336 h, dose 50-100 mg/kg, time 14 day
[11] = Acute toxicity in ICR male mouse assessed as effect on weight loss at 50 to 100 mg/kg, iv as single dose for 14 days; type: organism-based; conditions: in vivo, 336 h, dose 50-100 mg/kg, time 14 day
Homo sapiens [12] = species: Homo sapiens; assay: Selectivity index, ratio of IC50 for coagulation factor XIIa (unknown origin) to IC50 for coagulation factor XIa (unknown origin)

With `O=C(/C=C/c1cc(Cl)ccc1-n1cnnn1)N[C@@H](CC(=O)N1CCN(c2ccccc2)CC1)C(=O)Nc1ccc(C(=O)O)cc1` the Activity [1] was “Non-Toxic”, the Activity [2] was “Non-Toxic” and the clearance [3] was 9.22 mL/min/kg. The Ratio IC50 (Homo sapiens [4]) was > 5000, the inhibition [5] was “inactive” and the IC50 (Coagulation factor X) was 340 µM. For the same compound, the Activity (Mus musculus) was “inactive”, the Activity [6] was “Non-Toxic” and the IC50 (Prothrombin) was 460 µM. For the same compound, the Activity [7] was “Non-Toxic”, the Activity [8] was “Non-Toxic” and the Ratio IC50 (Homo sapiens [9]) was 1960. The Activity [10] was “Non-Toxic”, the Activity [11] was “Non-Toxic” and the Ratio IC50 (Homo sapiens [12]) was > 5000.
